{"source": "patent US8420574B2", "about": "“Plant growth enhancement with combinations of PESA and herbicides” (Valent BioSciences Corporation, priority 2009, dated 2013)", "tested_on": "rice cv. Cheniere", "assay": "Pouch assay, PESA salt and herbicide added to the pouch solution; root and shoot length", "assay_type": "in vivo", "protocol": "Alternatively, PESA salt and herbicides may be added separately to the sterile water in the growth pouch.\nSeeds were placed in germination pouches consisting of germination paper hydrated with sterile water that was an insert in a gas-permeable 16×14 cm plastic pouch (CYG Pouch; Mega International, St. Paul, Minn.). In these examples, in pouch solution evaluation, PESA sodium salt or other active ingredients were added to the sterile water in the pouch. The pouches were arranged in a completely randomized block design in growth racks and placed in 19-liter polycarbonate food storage containers (Rubbermaid Commercial Products, Winchester, Va.). The sealed containers were held in an upright growth cabinet maintained at 25 C with a 12 hour light: 12 hour dark photoperiod. After 6 days, the containers were removed from the growth cabinet, and the lengths of the roots and shoot were measured.", "note": "Structures can show the parent of a compound that is named as a salt."}
{"smiles": "O=C(O)CCC(=O)NCCc1ccccc1", "note": "[PESA salt, N-(2-phenylethyl)succinamic acid]", "values": [{"measurement": "Shoot Length", "setting": "0 ppm pendimethalin, treatment 30 ppm PESA salt, 10 ppm GA3 or both, untreated 3.9", "value": 3.8, "unit": "cm"}, {"measurement": "Root Length", "setting": "0 ppm pendimethalin, treatment 30 ppm PESA salt, 10 ppm GA3 or both, untreated 9.7", "value": 11.2, "unit": "cm"}, {"measurement": "Shoot Length", "setting": "10 ppm dithiopyr, treatment none (Control), 30 ppm PESA salt, 10 ppm GA3 or both, untreated 3.9", "value": 2.8, "unit": "cm"}, {"measurement": "Root Length", "setting": "10 ppm dithiopyr, treatment none (Control), 30 ppm PESA salt, 10 ppm GA3 or both, untreated 9.5", "value": 6.4, "unit": "cm"}, {"measurement": "Shoot Length", "setting": "30 ppm PESA salt, 0 ppm chlorsulfuron, untreated 4.8", "value": 4.9, "unit": "cm"}, {"measurement": "Root Length", "setting": "30 ppm PESA salt, 0 ppm chlorsulfuron, untreated 11.6", "value": 12.8, "unit": "cm"}, {"measurement": "Shoot Length", "setting": "30 ppm PESA salt, 0 ppm dithiopyr, untreated 4.0", "value": 4.2, "unit": "cm"}, {"measurement": "Root Length", "setting": "30 ppm PESA salt, 0 ppm dithiopyr, untreated 9.5", "value": 12.2, "unit": "cm"}, {"measurement": "Shoot Length", "setting": "30 ppm PESA salt, 0 ppm metolachlor, untreated 3.7", "value": 3.7, "unit": "cm"}, {"measurement": "Root Length", "setting": "30 ppm PESA salt, 0 ppm metolachlor, untreated 9.3", "value": 10.9, "unit": "cm"}, {"measurement": "Shoot Length", "setting": "30 ppm PESA salt, 0 ppm pendimethalin, untreated 3.4", "value": 3.6, "unit": "cm"}, {"measurement": "Root Length", "setting": "30 ppm PESA salt, 0 ppm pendimethalin, untreated 8.5", "value": 10.1, "unit": "cm"}, {"measurement": "Shoot Length", "setting": "30 ppm PESA salt, 0 ppm trifluralin, untreated 3.2", "value": 3.7, "unit": "cm"}, {"measurement": "Root Length", "setting": "30 ppm PESA salt, 0 ppm trifluralin, untreated 9.2", "value": 10.7, "unit": "cm"}, {"measurement": "Shoot Length", "setting": "30 ppm PESA salt, 1 ppm dithiopyr, untreated 4.0", "value": 4.0, "unit": "cm"}, {"measurement": "Root Length", "setting": "30 ppm PESA salt, 1 ppm dithiopyr, untreated 9.5", "value": 11.4, "unit": "cm"}, {"measurement": "Shoot Length", "setting": "30 ppm PESA salt, 1 ppm metolachlor, untreated 3.7", "value": 3.9, "unit": "cm"}, {"measurement": "Root Length", "setting": "30 ppm PESA salt, 1 ppm metolachlor, untreated 9.3", "value": 8.6, "unit": "cm"}, {"measurement": "Shoot Length", "setting": "30 ppm PESA salt, 1 ppm trifluralin, untreated 3.2", "value": 3.6, "unit": "cm"}, {"measurement": "Root Length", "setting": "30 ppm PESA salt, 1 ppm trifluralin, untreated 9.2", "value": 10.6, "unit": "cm"}, {"measurement": "Shoot Length", "setting": "30 ppm PESA salt, 10 ppm chlorsulfuron, untreated 4.8", "value": 0.9, "unit": "cm"}, {"measurement": "Root Length", "setting": "30 ppm PESA salt, 10 ppm chlorsulfuron, untreated 11.6", "value": 0.5, "unit": "cm"}, {"measurement": "Shoot Length", "setting": "30 ppm PESA salt, 10 ppm dithiopyr, untreated 4.0", "value": 3.7, "unit": "cm"}, {"measurement": "Root Length", "setting": "30 ppm PESA salt, 10 ppm dithiopyr, untreated 9.5", "value": 9.1, "unit": "cm"}, {"measurement": "Shoot Length", "setting": "30 ppm PESA salt, 10 ppm metolachlor, untreated 3.7", "value": 0.9, "unit": "cm"}, {"measurement": "Root Length", "setting": "30 ppm PESA salt, 10 ppm metolachlor, untreated 9.3", "value": 4.4, "unit": "cm"}, {"measurement": "Shoot Length", "setting": "30 ppm PESA salt, 10 ppm pendimethalin, untreated 3.4", "value": 3.2, "unit": "cm"}, {"measurement": "Root Length", "setting": "30 ppm PESA salt, 10 ppm pendimethalin, untreated 8.5", "value": 9.4, "unit": "cm"}, {"measurement": "Shoot Length", "setting": "30 ppm PESA salt, 10 ppm trifluralin, untreated 3.2", "value": 2.9, "unit": "cm"}, {"measurement": "Root Length", "setting": "30 ppm PESA salt, 10 ppm trifluralin, untreated 9.2", "value": 9.1, "unit": "cm"}, {"measurement": "Shoot Length", "setting": "30 ppm PESA salt, 100 ppm chlorsulfuron, untreated 4.8", "value": 0.8, "unit": "cm"}, {"measurement": "Root Length", "setting": "30 ppm PESA salt, 100 ppm chlorsulfuron, untreated 11.6", "value": 0.3, "unit": "cm"}, {"measurement": "Shoot Length", "setting": "30 ppm PESA salt, 100 ppm dithiopyr, untreated 4.0", "value": 1.1, "unit": "cm"}, {"measurement": "Root Length", "setting": "30 ppm PESA salt, 100 ppm dithiopyr, untreated 9.5", "value": 0.4, "unit": "cm"}, {"measurement": "Shoot Length", "setting": "30 ppm PESA salt, 100 ppm metolachlor, untreated 3.7", "value": 0.6, "unit": "cm"}, {"measurement": "Root Length", "setting": "30 ppm PESA salt, 100 ppm metolachlor, untreated 9.3", "value": 1.7, "unit": "cm"}, {"measurement": "Shoot Length", "setting": "30 ppm PESA salt, 100 ppm pendimethalin, untreated 3.4", "value": 1.0, "unit": "cm"}, {"measurement": "Root Length", "setting": "30 ppm PESA salt, 100 ppm pendimethalin, untreated 8.5", "value": 3.1, "unit": "cm"}, {"measurement": "Shoot Length", "setting": "30 ppm PESA salt, 100 ppm trifluralin, untreated 3.2", "value": 2.4, "unit": "cm"}, {"measurement": "Root Length", "setting": "30 ppm PESA salt, 100 ppm trifluralin, untreated 9.2", "value": 5.1, "unit": "cm"}, {"measurement": "Shoot Length", "setting": "30 ppm PESA salt, 500 ppm pendimethalin, untreated 3.4", "value": 0.5, "unit": "cm"}, {"measurement": "Root Length", "setting": "30 ppm PESA salt, 500 ppm pendimethalin, untreated 8.5", "value": 0.6, "unit": "cm"}, {"measurement": "protection of roots from herbicide", "setting": "30 ppm PESA with 10 ppm dithiopyr", "value": "protected the roots largely from the negative effects of dithiopyr"}, {"measurement": "protection of roots from herbicide", "setting": "30 ppm PESA with 100 ppm trifluralin", "value": "largely protected the roots from the negative effects of trifluralin"}, {"measurement": "Shoot Length", "setting": "50 ppm pendimethalin, treatment none (Control), 30 ppm PESA salt, 10 ppm GA3 or both, untreated 3.9", "value": 1.1, "unit": "cm"}, {"measurement": "Root Length", "setting": "50 ppm pendimethalin, treatment none (Control), 30 ppm PESA salt, 10 ppm GA3 or both, untreated 9.7", "value": 5.6, "unit": "cm"}, {"measurement": "root length greater than with pendimethalin alone", "setting": "PESA and pendimethalin, on average", "value": 20, "unit": "%"}, {"measurement": "root length relative to pendimethalin alone", "setting": "PESA salt added to pendimethalin (Table 4)", "value": "twice the length of those grown in pendimethalin alone"}, {"measurement": "effect on root and shoot length", "setting": "PESA salt in the absence of trifluralin", "value": "significant increase in both root and shoot length"}, {"measurement": "protection of roots from herbicide", "setting": "PESA salt with 10 ppm metolachlor", "value": "partially protected primary root length"}, {"measurement": "protection of root length from herbicide", "setting": "PESA salt with chlorsulfuron, rice", "value": "had no activity in combination with chlorsulfuron"}, {"measurement": "effect on shoot length under herbicide", "setting": "PESA salt with dithiopyr", "value": "did not significantly alter the negative effects of dithiopyr on shoot length"}, {"measurement": "effect on shoot growth under herbicide", "setting": "PESA salt with pendimethalin", "value": "did not overcome the negative effects of pendimethalin on shoot growth"}, {"measurement": "effect on shoot length under herbicide", "setting": "PESA salt with trifluralin", "value": "did not consistently overcome the negative effects of trifluralin on shoot length"}, {"measurement": "root length increased by", "setting": "addition of 30 ppm PESA to 100 ppm pendimethalin", "value": 25, "unit": "%"}, {"measurement": "Shoot Length", "setting": "no dithiopyr (Control), treatment 30 ppm PESA salt, 10 ppm GA3 or both, untreated 3.9", "value": 3.6, "unit": "cm"}, {"measurement": "Root Length", "setting": "no dithiopyr (Control), treatment 30 ppm PESA salt, 10 ppm GA3 or both, untreated 9.5", "value": 10.7, "unit": "cm"}]}
